Reference: patent US20240150303A1, “DIAMINOTRIAZINE COMPOUNDS” (BASF SE, priority 2021, published 2024)

How the values were obtained:
Assay in all cases: greenhouse pre-emergence herbicidal test
Format in all cases: in vivo
Amaranthus retroflexus = tested on: Amaranthus retroflexus
Description: (§1) The seeds of the test plants were sown separately for each species. For the pre-emergence treatment, the active ingredients, which had been suspended or emulsified in water, were applied directly after sowing by means of finely distributing nozzles. The containers were irrigated gently to promote germination and growth and subsequently covered with transparent plastic hoods until the plants had rooted. This cover caused uniform germination of the test plants, unless this had been impaired by the active ingredients. […] The test period extended over 2 to 4 weeks. During this time, the plants were tended, and their response to the individual treatments was evaluated. Evaluation was carried out using a scale from 0 to 100. 100 means no emergence of the plants, or complete destruction of at least the aerial moieties, and 0 means no damage, or normal course of growth. A moderate herbicidal activity is given at values of at least 60, a good herbicidal activity is given at values of at least 70, and a very good herbicidal activity is given at values of at least 85. The plants used in the greenhouse experiments were of the following species: [table]

Setaria faberi = tested on: Setaria faberi
Description: as §1

Alopercurus myosuroides = tested on: Alopercurus myosuroides
Description: (§2) The culture containers used were plastic flowerpots containing loamy sand with approximately 3.0% of humus as the substrate. The seeds of the test plants were sown separately for each species.
(§3) For the pre-emergence treatment, the active ingredients, which had been suspended or emulsified in water, were applied directly after sowing by means of finely distributing nozzles.
(§4) The containers were irrigated gently to promote germination and growth and subsequently covered with transparent plastic hoods until the plants had rooted. This cover caused uniform germination of the test plants, unless this had been impaired by the active ingredients.
(§5) Depending on the species, the plants were kept at 10-25° C. or 20-35° C., respectively.
(§6) The test period extended over 2 to 4 weeks. During this time, the plants were tended, and their response to the individual treatments was evaluated.
(§7) Evaluation was carried out using a scale from 0 to 100. 100 means no emergence of the plants, or complete destruction of at least the aerial moieties, and 0 means no damage, or normal course of growth. A moderate herbicidal activity is given at values of at least 60, a good herbicidal activity is given at values of at least 70, and a very good herbicidal activity is given at values of at least 85.
(§8) The plants used in the greenhouse experiments were of the following species: […]

Echinocloa crus-galli = tested on: Echinocloa crus-galli
Description: as §1

Abutilon theophrasti = tested on: Abutilon theophrasti
Description: as §2, §3, §4, §5, §6, §7, §8

Compound | herbicidal activity (Amaranthus retroflexus; 62 g/ha) [%] | herbicidal activity (Setaria faberi; 62 g/ha) [%] | herbicidal activity (Echinocloa crus-galli; 62 g/ha) [%] | herbicidal activity (Abutilon theophrasti; 62 g/ha) [%] | herbicidal activity (Amaranthus retroflexus; 62.5 g/ha) [%] | herbicidal activity (Echinocloa crus-galli; 62.5 g/ha) [%] | other results
COc1c(Br)cc(Cl)c(C)c1Nc1nc(N)nc(C(C)(F)F)n1 [Example 97] | 85 | 85 |  |  |  |  | herbicidal activity (Alopercurus myosuroides; 62 g/ha): 70%
COc1c(Cl)cc(C)c(Cl)c1Nc1nc(N)nc(C(C)(C)F)n1 [Example 63] | 100 |  | 100 | 100 |  |  | herbicidal activity (Amaranthus retroflexus; 31 g/ha): 80%; herbicidal activity (Setaria faberi; 31 g/ha): 100%; herbicidal activity (Alopercurus myosuroides; 31 g/ha): 80%
COc1c(Cl)cc(F)c(C)c1Nc1nc(N)nc(C(C)(C)F)n1 [Example 70] | 100 | 100 | 100 | 100 |  |  | 
CC(F)c1nc(N)nc(Nc2c(Cl)cccc2OC(F)F)n1 (racemic) [Example 95] | 100 | 100 | 100 | 100 |  |  | 
COc1c(Cl)cc(Br)c(C)c1Nc1nc(N)nc(C2(F)CCCC2)n1 [Example 61] |  | 85 | 70 |  |  |  | herbicidal activity (Amaranthus retroflexus; 31 g/ha): 100%; herbicidal activity (Echinocloa crus-galli; 31 g/ha): 100%; herbicidal activity (Abutilon theophrasti; 31 g/ha): 100%; herbicidal activity (Alopercurus myosuroides; 62 g/ha): 75%
COc1c(Br)cc(Br)c(C)c1Nc1nc(N)nc(C(C)(C)F)n1 [Example 38] |  |  |  |  | 100 | 100 | herbicidal activity (Amaranthus retroflexus; 250 g/ha): 100%; herbicidal activity (Setaria faberi; 62.5 g/ha): 100%; herbicidal activity (Setaria faberi; 250 g/ha): 100%; herbicidal activity (Abutilon theophrasti; 250 g/ha): 100%
CC#CCOc1c(Br)cc(F)c(Cl)c1Nc1nc(N)nc(C(C)(C)F)n1 [Example 32] |  | 100 |  | 100 | 100 | 100 | herbicidal activity (Abutilon theophrasti; 62.5 g/ha): 100%; herbicidal activity (Alopercurus myosuroides; 62 g/ha): 100%
COc1c(Br)ccc(C)c1Nc1nc(N)nc(C(C)(C)F)n1 [Example 62] | 100 |  | 100 | 100 |  |  | herbicidal activity (Amaranthus retroflexus; 31 g/ha): 100%; herbicidal activity (Echinocloa crus-galli; 31 g/ha): 100%; herbicidal activity (Setaria faberi; 31 g/ha): 100%
COc1c(F)cc(C)c(C)c1Nc1nc(N)nc(C(C)(C)F)n1 [Example 54] | 100 |  | 100 | 100 |  | 100 | herbicidal activity (Abutilon theophrasti; 62.5 g/ha): 100%; herbicidal activity (Alopercurus myosuroides; 62.5 g/ha): 100%
COc1c(F)cc(F)c(Br)c1Nc1nc(N)nc(C(C)(C)F)n1 [Example 13] |  |  |  |  |  | 100 | herbicidal activity (Amaranthus retroflexus; 31 g/ha): 100%; herbicidal activity (Echinocloa crus-galli; 31 g/ha): 100%; herbicidal activity (Setaria faberi; 62.5 g/ha): 100%; herbicidal activity (Abutilon theophrasti; 31 g/ha): 100%; herbicidal activity (Alopercurus myosuroides; 62.5 g/ha): 100%
COc1c(Br)cc(Cl)c(C)c1Nc1nc(N)nc(C(C)(F)CCl)n1 (racemic) [Example 98] | 100 | 100 |  |  |  |  | herbicidal activity (Alopercurus myosuroides; 62 g/ha): 100%
CC#CCOc1c(F)cc(C)c(Cl)c1Nc1nc(N)nc(C(C)(C)F)n1 [Example 57] | 100 | 100 | 100 |  |  |  | herbicidal activity (Echinocloa crus-galli; 31 g/ha): 100%; herbicidal activity (Setaria faberi; 31 g/ha): 100%; herbicidal activity (Abutilon theophrasti; 31 g/ha): 98%
CC#CCOc1c(F)ccc(Cl)c1Nc1nc(N)nc(C(C)(C)F)n1 [Example 51] | 100 | 100 | 100 | 100 |  |  | 
COc1c(F)cc(C)c(Cl)c1Nc1nc(N)nc(C(C)(C)F)n1 [Example 55] |  | 100 | 100 | 100 | 100 | 100 | herbicidal activity (Abutilon theophrasti; 62.5 g/ha): 100%
COc1c(F)cc(F)c(Cl)c1Nc1nc(N)nc(C(C)(C)F)n1 [Example 9] |  |  |  |  |  |  | herbicidal activity (Amaranthus retroflexus; 32 g/ha): 100%; herbicidal activity (Amaranthus retroflexus; 250 g/ha): 100%; herbicidal activity (Echinocloa crus-galli; 32 g/ha): 100%; herbicidal activity (Setaria faberi; 250 g/ha): 95%; herbicidal activity (Abutilon theophrasti; 32 g/ha): 100%; herbicidal activity (Abutilon theophrasti; 250 g/ha): 90%
COc1c(Cl)cc(F)c(C)c1Nc1nc(N)nc(C(C)(F)CBr)n1 (stereo not shown) [Example 66] | 100 | 100 | 100 | 100 |  |  | 

Compound | herbicidal activity (Amaranthus retroflexus; 62 g/ha) [%] | herbicidal activity (Setaria faberi; 62 g/ha) [%] | herbicidal activity (Echinocloa crus-galli; 62 g/ha) [%] | herbicidal activity (Abutilon theophrasti; 62 g/ha) [%] | herbicidal activity (Amaranthus retroflexus; 62.5 g/ha) [%] | herbicidal activity (Echinocloa crus-galli; 62.5 g/ha) [%] | other results
CC#CCOc1c(F)cc(Br)c(Cl)c1Nc1nc(N)nc(C(C)(C)F)n1 [Example 59] | 100 | 100 |  |  |  | 95 | herbicidal activity (Setaria faberi; 62.5 g/ha): 100%; herbicidal activity (Abutilon theophrasti; 62.5 g/ha): 100%; herbicidal activity (Alopercurus myosuroides; 62 g/ha): 95%
COc1c(Cl)cc(F)c(C)c1Nc1nc(N)nc(C(C)F)n1 (stereo not shown) [Example 69] | 100 | 100 | 100 | 100 |  |  | 
COc1c(Cl)ccc(Cl)c1Nc1nc(N)nc(C(C)F)n1 (stereo not shown) [Example 71] | 100 | 100 | 100 | 100 |  |  | 
COc1c(Br)cc(F)c(Cl)c1Nc1nc(N)nc(C2(F)CCCC2)n1 [Example 40] |  | 100 | 100 | 100 | 100 | 100 | herbicidal activity (Setaria faberi; 62.5 g/ha): 100%
COc1c(Cl)cc(Br)c(Cl)c1Nc1nc(N)nc(C(C)(C)F)n1 [Example 12] |  |  |  |  |  |  | herbicidal activity (Amaranthus retroflexus; 250 g/ha): 100%; herbicidal activity (Echinocloa crus-galli; 250 g/ha): 100%; herbicidal activity (Setaria faberi; 250 g/ha): 100%; herbicidal activity (Abutilon theophrasti; 250 g/ha): 100%; herbicidal activity (Alopercurus myosuroides; 250 g/ha): 100%
COc1c(Cl)cc(F)c(C)c1Nc1nc(N)nc(C(C)(F)F)n1 [Example 67] | 100 | 100 | 100 | 100 |  |  | 
COc1c(Cl)cc(Cl)c(C)c1Nc1nc(N)nc(C(F)(F)F)n1 [Example 33] |  |  |  |  | 100 | 98 | herbicidal activity (Echinocloa crus-galli; 125 g/ha): 100%; herbicidal activity (Setaria faberi; 125 g/ha): 100%; herbicidal activity (Abutilon theophrasti; 62.5 g/ha): 100%; herbicidal activity (Alopercurus myosuroides; 125 g/ha): 100%
COc1c(F)ccc(Cl)c1Nc1nc(N)nc(C2(F)CCCC2)n1 [Example 53] | 100 |  | 100 | 100 |  | 98 | herbicidal activity (Setaria faberi; 62.5 g/ha): 100%; herbicidal activity (Alopercurus myosuroides; 62.5 g/ha): 90%
COc1c(F)cc(F)c(C(F)(F)F)c1Nc1nc(N)nc(C(C)(C)F)n1 [Example 19] |  | 100 | 100 |  | 100 | 100 | herbicidal activity (Abutilon theophrasti; 62.5 g/ha): 100%; herbicidal activity (Alopercurus myosuroides; 62 g/ha): 100%
COc1c(Cl)cc(Cl)c(C)c1Nc1nc(N)nc(C2(F)CC2)n1 [Example 93] | 100 | 100 | 100 |  | 100 |  | herbicidal activity (Setaria faberi; 62.5 g/ha): 70%; herbicidal activity (Abutilon theophrasti; 62.5 g/ha): 80%
COc1c(Cl)cc(F)c(C)c1Nc1nc(N)nc(C(C)(F)CCl)n1 (stereo not shown) [Example 68] | 100 | 100 | 100 | 100 |  |  | 
C#CCOc1c(F)ccc(Cl)c1Nc1nc(N)nc(C(C)(C)F)n1 [Example 50] | 100 |  | 100 | 100 |  |  | herbicidal activity (Amaranthus retroflexus; 31 g/ha): 100%; herbicidal activity (Setaria faberi; 31 g/ha): 100%; herbicidal activity (Abutilon theophrasti; 31 g/ha): 80%
COc1c(Cl)ccc(Cl)c1Nc1nc(N)nc(C(C)(C)F)n1 [Example 20] |  | 100 | 100 |  | 100 | 100 | herbicidal activity (Abutilon theophrasti; 62.5 g/ha): 100%; herbicidal activity (Alopercurus myosuroides; 62 g/ha): 100%
CC#CCOc1c(Br)cc(F)c(C)c1Nc1nc(N)nc(C(C)(C)F)n1 [Example 21] |  | 100 | 100 |  | 95 | 100 | herbicidal activity (Setaria faberi; 62.5 g/ha): 100%; herbicidal activity (Alopercurus myosuroides; 62 g/ha): 100%
COc1c(Br)cc(Cl)c(C)c1Nc1nc(N)nc(C(C)(C)F)n1 [Example 39] | 100 | 100 |  | 100 | 100 | 100 | herbicidal activity (Setaria faberi; 62.5 g/ha): 100%
COc1c(Br)cc(F)c(Cl)c1Nc1nc(N)nc(C(C)F)n1 (stereo not shown) [Example 41] |  | 100 | 100 | 100 | 100 | 100 | herbicidal activity (Setaria faberi; 62.5 g/ha): 100%
